In patent US11780826B2 (Amgen Inc., priority 2017, dated 2023):

Test system: Bovine cardiac myofibrils
Experiment: In vitro model of dose-dependent myofibril ATPase modulation (AC1.4, pyruvate kinase/lactate dehydrogenase-coupled ATPase assay at pCa25)
Type: biochemical
Settings: concentration at which ATPase activity was 1.4-fold higher than the bottom of the dose curve, mean of a minimum of two independent tests
How it was run: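 Coupled-enzyme ATPase on bovine heart myofibrils, 1 mM ATP, EGTA/CaCl2 buffered; 340 nm readout.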

In order of rising AC1.4:
1. CS(=O)(=O)c1ccc(C(=O)N2[C@@H](C(=O)N[C@@H](c3ccc(C(F)(F)F)cc3F)C3CC3)C[C@H]3C[C@H]32)cn1 [Example 490, (1R,3R,5R)-N-((R)-cyclopropyl(2-fluoro-4-(trifluoromethyl)phenyl)methyl)-2-((6-(methylsulfonyl)-3-pyridinyl)carbonyl)-2-azabicyclo[3.1.0]hexane-3-carboxamide]  2.1625 µM
2. O=C(N[C@@H](c1ccc(C(F)(F)F)c(F)c1)C1CC1)[C@H]1C[C@H]2C[C@H]2N1C(=O)c1cncc(S(=O)(=O)C2CC2)c1 [Example 491, (1R,3R,5R)-N-((R)-cyclopropyl(3-fluoro-4-(trifluoromethyl)phenyl)methyl)-2-((5-(cyclopropylsulfonyl)-3-pyridinyl)carbonyl)-2-azabicyclo[3.1.0]hexane-3-carboxamide]  2.181 µM
3. CS(=O)(=O)c1ccc(C(=O)N2CCC[C@@H]2C(=O)N[C@@H](c2ccc(C(F)(F)F)cc2F)C2CC2)cn1 [Example 505, N-((R)-cyclopropyl(2-fluoro-4-(trifluoromethyl)phenyl)methyl)-1-((6-(methylsulfonyl)-3-pyridinyl)carbonyl)-D-prolinamidev]  2.1945 µM
4. CS(=O)(=O)c1cccc(C(=O)N2C[C@H](O)C[C@@H]2C(=O)N[C@@H](c2ccc(C(F)(F)F)cc2F)C2CC2)c1 [Example 506, (4R)-N-((R)-cyclopropyl(2-fluoro-4-(trifluoromethyl)phenyl)methyl)-4-hydroxy-1-(3-(methylsulfonyl)benzoyl)-D-prolinamide]  2.23 µM
5. CS(=O)(=O)c1cc(C(=O)N2C[C@@H](F)C[C@@H]2C(=O)N[C@@H](c2cc(F)c(Cl)cc2F)C2CC2)ccn1 [Example 510, (4S)-N-((R)-(4-chloro-2,5-difluorophenyl)(cyclopropyl)methyl)-4-fluoro-1-((2-(methylsulfonyl)-4-pyridinyl)carbonyl)-D-prolinamide]  2.2505 µM
6. CS(=O)(=O)c1cncc(C(=O)N2C[C@H]3C[C@H]3[C@@H]2C(=O)N[C@@H](c2cc(F)c(Cl)cc2F)C2CC2)c1 [Example 512, (1R,2R,5S)-N-((R)-(4-chloro-2,5-difluorophenyl)(cyclopropyl)methyl)-3-((5-(methylsulfonyl)-3-pyridinyl)carbonyl)-3-azabicyclo[3.1.0]hexane-2-carboxamide]  2.252 µM
7. COC1CN(S(=O)(=O)N2CCC[C@H](C(=O)N3CCC[C@@H]3C(=O)NCc3ccc(C(F)(F)F)cc3)C2)C1 [Example 492, 1-(((3S)-1-((3-methoxy-1-azetidinyl)sulfonyl)-3-piperidinyl)carbonyl)-N-(4-(trifluoromethyl)benzyl)-D-prolinamide]  2.256 µM
8. O=C(O[C@@H]1C[C@H](C(=O)N[C@@H](c2cc(F)c(Cl)cc2F)C2COC2)N(C(=O)c2ccnc(C(F)(F)F)c2)C1)c1ccnc(C(F)(F)F)c1 [Example 493, (3R,5R)-5-(((R)-(4-chloro-2,5-difluorophenyl)(3-oxetanyl)methyl)carbamoyl)-1-((2-(trifluoromethyl)-4-pyridinyl)carbonyl)-3-pyrrolidinyl2-(trifluoromethyl)-4-pyridinecarboxylate]  2.271 µM
9. C[C@@H](NC(=O)[C@H]1C[C@H](F)CN1C(=O)[C@H]1CCCN(S(=O)(=O)N2CC(C#N)C2)C1)c1cccc(C(F)(F)F)c1 [Example 494, (2R,4S)-1-((S)-1-((3-cyanoazetidin-1-yl)sulfonyl)piperidine-3-carbonyl)-4-fluoro-N-((R)-1-(3-(trifluoromethyl)phenyl)ethyl)pyrrolidine-2-carboxamide]  2.274 µM
10. O=C(N[C@@H](c1ccc(C(F)(F)F)cc1F)C1CC1)[C@H]1C[C@H]2C[C@H]2N1C(=O)c1ccnc(C(F)(F)F)c1 [Example 495, (1R,3R,5R)-N-((R)-cyclopropyl(2-fluoro-4-(trifluoromethyl)phenyl)methyl)-2-((2-(trifluoromethyl)-4-pyridinyl)carbonyl)-2-azabicyclo[3.1.0]hexane-3-carboxamide]  2.278 µM
11. N#CC1CN(S(=O)(=O)N2CCC[C@H](C(=O)N3CCC[C@@H]3C(=O)NCc3cccc(F)c3)C2)C1 [Example 496, 1-(((3S)-1-((3-cyano-1-azetidinyl)sulfonyl)-3-piperidinyl)carbonyl)-N-(3-fluorobenzyl)-D-prolinamide]  2.291 µM
12. CC(C)(C(N)=O)c1cccc(C(=O)N2[C@@H](C(=O)N[C@@H](c3ccc(C(F)(F)F)cc3F)C3COC3)C[C@H]3C[C@H]32)c1 [Example 497, (1R,3R,5R)-2-(3-(1-amino-2-methyl-1-oxopropan-2-yl)benzoyl)-N—((R)-(2-fluoro-4-(trifluoromethyl)phenyl)(oxetan-3-yl)methyl)-2-azabicyclo[3.1.0]hexane-3-carboxamide]  2.3075 µM
13. Cc1cc(F)cc(CNC(=O)[C@H]2CCCN2C(=O)[C@H]2CCCN(S(=O)(=O)N3CC(C#N)C3)C2)c1 [Example 498, 1-(((3S)-1-((3-cyano-1-azetidinyl)sulfonyl)-3-piperidinyl)carbonyl)-N-(3-fluoro-5-methylbenzyl)-D-prolinamide]  2.335 µM
14. CS(=O)(=O)C1CN(S(=O)(=O)N2CCC[C@H](C(=O)N3CCC[C@@H]3C(=O)NCc3ccc(C(F)(F)F)cn3)C2)C1 [Example 499, 1-(((3S)-1-((3-(methylsulfonyl)-1-azetidinyl)sulfonyl)-3-piperidinyl)carbonyl)-N-((5-(trifluoromethyl)-2-pyridinyl)methyl)-D-prolinamide]  2.344 µM
15. O=C(N[C@@H](c1cc(F)c(Cl)cc1F)C1COC1)[C@H]1C[C@H]2C[C@H]2N1C(=O)c1ccnc(C(F)(F)F)n1 [Example 500, (1R,3R,5R)-N-((R)-(4-chloro-2,5-difluorophenyl)(3-oxetanyl)methyl)-2-((2-(trifluoromethyl)-4-pyrimidinyl)carbonyl)-2-azabicyclo[3.1.0]hexane-3-carboxamide]  2.346 µM
16. O=C(N[C@@H](c1cc(F)c(Cl)cc1F)C1COC1)[C@H]1C[C@@H](O)CN1C(=O)c1ccnc(C(F)F)c1 [Example 501, (4R)-N-((R)-(4-chloro-2,5-difluorophenyl)(3-oxetanyl)methyl)-1-((2-(difluoromethyl)-4-pyridinyl)carbonyl)-4-hydroxy-D-prolinamide]  2.3495 µM
17. N#CC1CN(S(=O)(=O)N2CCC[C@H](C(=O)N3CCC[C@@H]3C(=O)NC3CCOc4ccccc43)C2)C1 (stereo partly drawn) [Example 502, (2R)-N-(chroman-4-yl)-1-((S)-1-((3-cyanoazetidin-l-yl)sulfonyl)piperidine-3-carbonyl)pyrrolidine-2-carboxamide]  2.3515 µM
18. N#CC1CN(S(=O)(=O)N2CC(C(=O)N3CCC[C@@H]3C(=O)NCc3ccc(C(F)(F)F)cc3)C3CC32)C1 (stereo partly drawn) [Example 503, (2R)-1-(2-((3-cyanoazetidin-1-yl)sulfonyl)-2-azabicyclo[3.1.0]hexane-4-carbonyl)-N-(4-(trifluoromethyl)benzyl)pyrrolidine-2-carboxamide]  2.3565 µM
19. CC(C)c1cc(C(=O)N2[C@@H](C(=O)N[C@@H](c3cc(F)c(Cl)cc3F)C3COC3)C[C@H]3C[C@H]32)ccn1 [Example 504, (1R,3R,5R)-N-((R)-(4-chloro-2,5-difluorophenyl)(3-oxetanyl)methyl)-2-((2-(2-propanyl)-4-pyridinyl)carbonyl)-2-azabicyclo[3.1.0]hexane-3-carboxamide]  2.3635 µM
20. CCS(=O)(=O)c1cccc(C(=O)N2[C@@H](C(=O)N[C@H](C)c3cc(F)c(Cl)cc3F)C[C@H]3C[C@H]32)c1 [Example 513, (1R,3R,5R)-N-((1R)-1-(4-chloro-2,5-difluorophenyl)ethyl)-2-(3-(ethylsulfonyl)benzoyl)-2-azabicyclo[3.1.0]hexane-3-carboxamide]  2.3655 µM
21. N#CC1CC(S(=O)(=O)c2cccc(C(=O)N3CCC[C@@H]3C(=O)NCc3ccc(C(F)(F)F)nc3)c2)C1 (stereo partly drawn) [Example 507, (R)-1-(3-((3-cyanocyclobutyl)sulfonyl)benzoyl)-N-((6-(trifluoromethyl)pyridin-3-yl)methyl)pyrrolidine-2-carboxamide]  2.38 µM
22. Cc1ccc(F)cc1CNC(=O)[C@H]1CCCN1C(=O)[C@H]1CCCN(S(=O)(=O)N2CC(C#N)C2)C1 [Example 508, 1-(((3S)-1-((3-cyano-1-azetidinyl)sulfonyl)-3-piperidinyl)carbonyl)-N-(5-fluoro-2-methylbenzyl)-D-prolinamide]  2.3805 µM
23. CCC1(O)CN(S(=O)(=O)N2CCC[C@H](C(=O)N3CCC[C@@H]3C(=O)NCc3ccc(C(F)(F)F)cc3F)C2)C1 [Example 509, 1-(((3S)-1-((3-ethyl-3-hydroxy-1-azetidinyl)sulfonyl)-3-piperidinyl)carbonyl)-N-(2-fluoro-4-(trifluoromethyl)benzyl)-D-prolinamide]  2.3995 µM
24. C[C@@H](NC(=O)[C@H]1CCCN1C(=O)[C@@H]1CN(S(=O)(=O)N2CC(C#N)C2)CCN1)c1ccc(Cl)cc1 [Example 511, N-((1R)-1-(4-chlorophenyl)ethyl)-1-(((2S)-4-((3-cyano-1-azetidinyl)sulfonyl)-2-piperazinyl)carbonyl)-D-prolinamide]  2.4195 µM
25. N#CC1CN(S(=O)(=O)N2CCCC(F)(C(=O)N3CCC[C@@H]3C(=O)NCc3ccc(C(F)(F)F)cc3)C2)C1 (stereo partly drawn) [Example 514, (2R)-1-(1-((3-cyanoazetidin-1-yl)sulfonyl)-3-fluoropiperidine-3-carbonyl)-N-(4-(trifluoromethyl)benzyl)pyrrolidine-2-carboxamide]  2.433 µM
26. N#CC1CN(S(=O)(=O)N2CCC[C@H](C(=O)N3CCC[C@@H]3C(=O)NCc3ncc(C(F)(F)F)cc3F)C2)C1 [Example 515, 1-(((3S)-1-((3-cyano-1-azetidinyl)sulfonyl)-3-piperidinyl)carbonyl)-N-((3-fluoro-5-(trifluoromethyl)-2-pyridinyl)methyl)-D-prolinamide]  2.441 µM
